Source: patent publication US8933230B2, “Phosphorus-containing group-substituted quinoline, its preparation process, medical composition containing the compounds and application” (priority 2011, dated 2015)

Tests used:
Experiment in all cases: KinomeScan kinase panel
Type in all cases: binding
[1] = target: T1, EPHA7 (Homo sapiens, UniProt Q15375)
T1 construct: purchased DiscoveRx Corporation (KinomeScan)
Procedure: (§1) In this example, the compound prepared in Example 10, N1-[4-[[7-[[1-(diethoxyphosphorylmethyl)-4-piperidinyl]methoxyl]-6-methoxyl-4-quinolyl]oxyl]-3-fluorophenyl]-N1′-(4-fluorophenyl)cyclopropane-1,1-dicarboxamide is tested for the inhibitory effect in the 442-kinase panel of KinomeScan™ (www.kinomescan.com) from DiscoveRx Corporation (4215 Sorrento Valley Blvd, San Diego, Calif. 92121) at 1000 nM of the compound concentration, the results are shown in the following Table 5:
(§2) For the detailed information of the screening technique, see Fabian, M. A. et al, Nat., Biotechnol. 2005, 23, 329 and Karaman, M. W. et al, Nat., Biotechnol. 2008, 26, 127. It can be seen from the following representative results that, the compound according to the present invention has significant inhibitory effect on kinases including c-Met, KDR or VEGFR2, RET, PDGFR-β, c-KIT, Flt3, MEK5, DDR1, LOK, CSF1R, EPHA7, EPHA8, EPHB6, MKNK2, BLK, HIPK4, HCK, Flt4 and the mutants thereof

[2] = target: T2, FLT3 (Homo sapiens, UniProt P36888)
T2 construct: purchased DiscoveRx Corporation (KinomeScan)
T2 sequence (P36888 27-993): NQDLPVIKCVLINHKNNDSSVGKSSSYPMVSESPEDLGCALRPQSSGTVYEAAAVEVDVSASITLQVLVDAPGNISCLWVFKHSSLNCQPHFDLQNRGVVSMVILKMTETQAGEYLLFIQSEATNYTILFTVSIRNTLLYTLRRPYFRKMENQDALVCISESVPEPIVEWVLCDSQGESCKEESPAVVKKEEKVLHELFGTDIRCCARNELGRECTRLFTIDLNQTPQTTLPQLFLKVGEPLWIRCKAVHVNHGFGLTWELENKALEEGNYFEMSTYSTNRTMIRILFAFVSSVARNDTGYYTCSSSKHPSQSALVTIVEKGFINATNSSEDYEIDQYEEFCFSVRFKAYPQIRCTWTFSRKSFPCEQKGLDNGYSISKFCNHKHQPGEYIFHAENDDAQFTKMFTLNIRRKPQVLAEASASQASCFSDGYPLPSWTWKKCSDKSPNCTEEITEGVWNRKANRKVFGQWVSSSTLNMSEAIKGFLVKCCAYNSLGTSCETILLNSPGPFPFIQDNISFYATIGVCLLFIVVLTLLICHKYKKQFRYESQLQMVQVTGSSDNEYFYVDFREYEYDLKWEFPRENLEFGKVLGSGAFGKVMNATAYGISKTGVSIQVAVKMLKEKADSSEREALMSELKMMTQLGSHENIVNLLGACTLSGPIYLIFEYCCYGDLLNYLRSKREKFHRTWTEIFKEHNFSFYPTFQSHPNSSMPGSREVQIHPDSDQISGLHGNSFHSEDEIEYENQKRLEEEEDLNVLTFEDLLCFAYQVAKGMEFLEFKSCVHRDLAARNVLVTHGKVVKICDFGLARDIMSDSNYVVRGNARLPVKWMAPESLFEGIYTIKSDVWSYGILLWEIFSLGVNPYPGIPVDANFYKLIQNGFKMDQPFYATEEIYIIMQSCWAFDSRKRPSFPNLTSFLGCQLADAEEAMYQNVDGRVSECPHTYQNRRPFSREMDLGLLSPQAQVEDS
Procedure: as §1, §2

[3] = target: T3, SRPK2 (Homo sapiens, UniProt P78362)
T3 construct: purchased DiscoveRx Corporation (KinomeScan)
Procedure: as §1, §2

[4] = target: T4, TNK2 (Homo sapiens, UniProt Q07912)
T4 construct: purchased DiscoveRx Corporation (KinomeScan)
Procedure: as §1, §2

[5] = target: T5, CDK3 (Homo sapiens, UniProt Q00526)
T5 construct: purchased DiscoveRx Corporation (KinomeScan)
Procedure: as §1, §2

[6] = target: T6, PDPK1 (Homo sapiens, UniProt O15530)
T6 construct: purchased DiscoveRx Corporation (KinomeScan panel)
Procedure: as §1, §2

[7] = target: T7, ARK5 (Homo sapiens, UniProt O60285)
T7 construct: purchased DiscoveRx Corporation (KinomeScan)
T7 sequence (O60285 whole entry): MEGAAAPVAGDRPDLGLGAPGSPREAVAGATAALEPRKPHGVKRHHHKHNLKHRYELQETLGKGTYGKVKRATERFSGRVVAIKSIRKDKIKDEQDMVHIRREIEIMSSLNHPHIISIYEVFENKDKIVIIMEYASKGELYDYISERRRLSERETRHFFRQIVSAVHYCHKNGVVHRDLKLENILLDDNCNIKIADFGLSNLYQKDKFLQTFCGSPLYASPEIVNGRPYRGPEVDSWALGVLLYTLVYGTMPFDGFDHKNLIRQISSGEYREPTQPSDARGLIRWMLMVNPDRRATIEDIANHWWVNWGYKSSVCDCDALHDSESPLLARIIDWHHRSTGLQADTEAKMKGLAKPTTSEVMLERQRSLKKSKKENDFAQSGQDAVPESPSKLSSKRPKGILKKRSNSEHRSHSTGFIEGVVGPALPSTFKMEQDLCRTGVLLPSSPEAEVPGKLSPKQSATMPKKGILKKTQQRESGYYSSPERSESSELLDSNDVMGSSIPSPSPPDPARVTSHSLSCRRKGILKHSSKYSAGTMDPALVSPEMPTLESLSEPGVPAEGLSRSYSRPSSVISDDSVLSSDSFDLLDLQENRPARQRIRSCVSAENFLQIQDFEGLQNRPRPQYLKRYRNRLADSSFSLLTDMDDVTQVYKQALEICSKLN
Procedure: as §1, §2

[8] = target: T8, CLK1 (Homo sapiens, UniProt P49759)
T8 construct: purchased DiscoveRx Corporation (KinomeScan)
Procedure: as §1, §2

[9] = target: T9, NDR2 (Homo sapiens, UniProt Q9Y2H1)
T9 construct: purchased DiscoveRx Corporation (KinomeScan)
Procedure: as §1, §2

[10] = target: T10, MAP3K1 (Homo sapiens, UniProt Q13233)
T10 construct: purchased DiscoveRx Corporation (KinomeScan)
Procedure: as §1, §2

[11] = target: T11, ERK1 (Homo sapiens, UniProt P27361)
T11 construct: purchased DiscoveRx Corporation (KinomeScan)
Procedure: as §1, §2

[12] = target: T12, PIK3CA(18DDL) (Homo sapiens, UniProt P42336, I800L)
T12 construct: purchased DiscoveRx Corporation (KinomeScan)
T12 sequence (P42336 whole entry I800L): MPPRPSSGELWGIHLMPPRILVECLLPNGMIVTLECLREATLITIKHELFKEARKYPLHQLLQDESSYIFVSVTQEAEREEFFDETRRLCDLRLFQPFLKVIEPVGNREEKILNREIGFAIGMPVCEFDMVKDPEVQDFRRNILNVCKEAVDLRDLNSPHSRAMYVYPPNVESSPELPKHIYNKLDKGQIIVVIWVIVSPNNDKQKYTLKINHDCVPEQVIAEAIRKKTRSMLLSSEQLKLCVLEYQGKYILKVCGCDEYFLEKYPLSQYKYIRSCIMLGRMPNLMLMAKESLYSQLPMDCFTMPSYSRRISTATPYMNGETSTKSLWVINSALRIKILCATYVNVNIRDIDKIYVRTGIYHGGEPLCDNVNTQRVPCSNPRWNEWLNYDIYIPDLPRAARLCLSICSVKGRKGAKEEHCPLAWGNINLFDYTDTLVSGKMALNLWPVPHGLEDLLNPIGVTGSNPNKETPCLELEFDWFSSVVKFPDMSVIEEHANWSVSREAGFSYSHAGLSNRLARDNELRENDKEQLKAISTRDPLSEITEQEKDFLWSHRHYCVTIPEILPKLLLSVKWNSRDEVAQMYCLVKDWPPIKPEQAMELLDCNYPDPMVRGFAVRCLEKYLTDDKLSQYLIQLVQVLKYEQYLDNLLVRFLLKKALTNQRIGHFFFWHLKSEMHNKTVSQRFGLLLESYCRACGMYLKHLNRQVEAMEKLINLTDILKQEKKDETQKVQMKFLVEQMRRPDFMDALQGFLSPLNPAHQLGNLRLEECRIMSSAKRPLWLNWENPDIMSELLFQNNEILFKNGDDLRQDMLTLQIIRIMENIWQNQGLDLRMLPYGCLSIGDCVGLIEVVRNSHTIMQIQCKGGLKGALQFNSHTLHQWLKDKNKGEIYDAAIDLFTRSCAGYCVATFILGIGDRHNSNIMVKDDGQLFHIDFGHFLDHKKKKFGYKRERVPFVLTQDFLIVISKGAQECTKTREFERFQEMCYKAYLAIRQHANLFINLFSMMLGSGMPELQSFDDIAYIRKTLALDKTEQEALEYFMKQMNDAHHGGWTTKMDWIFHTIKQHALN
Procedure: as §1, §2

[13] = target: T13, AKT1 (Homo sapiens, UniProt P31749)
T13 construct: purchased DiscoveRx Corporation (KinomeScan)
T13 sequence (P31749 whole entry): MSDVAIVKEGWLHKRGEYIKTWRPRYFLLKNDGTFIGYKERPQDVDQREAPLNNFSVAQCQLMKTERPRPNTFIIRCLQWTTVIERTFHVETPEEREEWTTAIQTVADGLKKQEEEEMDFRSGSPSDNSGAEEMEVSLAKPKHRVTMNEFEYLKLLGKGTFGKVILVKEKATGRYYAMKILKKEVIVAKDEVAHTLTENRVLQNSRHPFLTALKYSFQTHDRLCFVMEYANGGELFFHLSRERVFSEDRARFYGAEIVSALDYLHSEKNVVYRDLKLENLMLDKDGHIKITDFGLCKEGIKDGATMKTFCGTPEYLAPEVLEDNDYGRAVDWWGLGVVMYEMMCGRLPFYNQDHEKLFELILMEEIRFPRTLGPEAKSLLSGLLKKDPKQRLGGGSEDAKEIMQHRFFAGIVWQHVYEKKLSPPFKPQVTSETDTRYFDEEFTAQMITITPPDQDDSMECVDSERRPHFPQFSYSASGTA
Procedure: as §1, §2

[14] = target: T14, DCAMKL3 (Homo sapiens, UniProt Q9C098)
T14 construct: purchased DiscoveRx Corporation (KinomeScan)
Procedure: as §1, §2

[15] = target: T15, MTOR (Homo sapiens, UniProt P42345)
T15 construct: purchased DiscoveRx Corporation (KinomeScan)
Procedure: as §1, §2

[16] = target: T16, IRAK1 (Homo sapiens, UniProt P51617)
T16 construct: purchased DiscoveRx Corporation (KinomeScan)
Procedure: as §1, §2

[17] = target: T17, MET(Y1235D) (Homo sapiens, UniProt P08581, Y1235D)
T17 construct: purchased DiscoveRx Corporation (KinomeScan)
Procedure: as §1, §2

[18] = target: T18, PCTK3 (Homo sapiens, UniProt Q07002)
T18 construct: purchased DiscoveRx Corporation (KinomeScan panel)
Procedure: as §1, §2

[19] = target: T19, EPHA5 (Homo sapiens, UniProt P54756)
T19 construct: purchased DiscoveRx Corporation (KinomeScan)
Procedure: as §1, §2

[20] = target: T20, PAKC-beta (Homo sapiens, UniProt P22694)
T20 construct: purchased DiscoveRx Corporation (KinomeScan)
Procedure: as §1, §2

[21] = target: T21, AMPK-alpha1 (Homo sapiens, UniProt Q13131)
T21 construct: purchased DiscoveRx Corporation (KinomeScan)
Procedure: as §1, §2

[22] = target: T22, TBK1 (Homo sapiens, UniProt Q9UHD2)
T22 construct: purchased DiscoveRx Corporation (KinomeScan)
Procedure: as §1, §2

[23] = target: T23, EGFR(E746-A750del) (Homo sapiens, UniProt P00533, DEL746-750)
T23 construct: purchased DiscoveRx Corporation (KinomeScan)
Procedure: as §1, §2

[24] = target: T24, MRCKA (Homo sapiens, UniProt Q5VT25)
T24 construct: purchased DiscoveRx Corporation (KinomeScan)
Procedure: as §1, §2

[25] = target: T25, AKT2 (Homo sapiens, UniProt P31751)
T25 construct: purchased DiscoveRx Corporation (KinomeScan)
Procedure: as §1, §2

[26] = target: T26, HUNK (Homo sapiens, UniProt P57058)
T26 construct: purchased DiscoveRx Corporation (KinomeScan)
Procedure: as §1, §2

[27] = target: T27, TESK1 (Homo sapiens, UniProt Q15569)
T27 construct: purchased DiscoveRx Corporation (KinomeScan)
Procedure: as §1, §2

[28] = target: T28, BRAF (Homo sapiens, UniProt P15056)
T28 construct: purchased DiscoveRx Corporation (KinomeScan)
Procedure: as §1, §2

[29] = target: T29, DCAMKL1 (Homo sapiens, UniProt O15075)
T29 construct: purchased DiscoveRx Corporation (KinomeScan)
Procedure: as §1, §2

[30] = target: T30, EPHA1 (Homo sapiens, UniProt P21709)
T30 construct: purchased DiscoveRx Corporation (KinomeScan)
T30 sequence (P21709 26-976): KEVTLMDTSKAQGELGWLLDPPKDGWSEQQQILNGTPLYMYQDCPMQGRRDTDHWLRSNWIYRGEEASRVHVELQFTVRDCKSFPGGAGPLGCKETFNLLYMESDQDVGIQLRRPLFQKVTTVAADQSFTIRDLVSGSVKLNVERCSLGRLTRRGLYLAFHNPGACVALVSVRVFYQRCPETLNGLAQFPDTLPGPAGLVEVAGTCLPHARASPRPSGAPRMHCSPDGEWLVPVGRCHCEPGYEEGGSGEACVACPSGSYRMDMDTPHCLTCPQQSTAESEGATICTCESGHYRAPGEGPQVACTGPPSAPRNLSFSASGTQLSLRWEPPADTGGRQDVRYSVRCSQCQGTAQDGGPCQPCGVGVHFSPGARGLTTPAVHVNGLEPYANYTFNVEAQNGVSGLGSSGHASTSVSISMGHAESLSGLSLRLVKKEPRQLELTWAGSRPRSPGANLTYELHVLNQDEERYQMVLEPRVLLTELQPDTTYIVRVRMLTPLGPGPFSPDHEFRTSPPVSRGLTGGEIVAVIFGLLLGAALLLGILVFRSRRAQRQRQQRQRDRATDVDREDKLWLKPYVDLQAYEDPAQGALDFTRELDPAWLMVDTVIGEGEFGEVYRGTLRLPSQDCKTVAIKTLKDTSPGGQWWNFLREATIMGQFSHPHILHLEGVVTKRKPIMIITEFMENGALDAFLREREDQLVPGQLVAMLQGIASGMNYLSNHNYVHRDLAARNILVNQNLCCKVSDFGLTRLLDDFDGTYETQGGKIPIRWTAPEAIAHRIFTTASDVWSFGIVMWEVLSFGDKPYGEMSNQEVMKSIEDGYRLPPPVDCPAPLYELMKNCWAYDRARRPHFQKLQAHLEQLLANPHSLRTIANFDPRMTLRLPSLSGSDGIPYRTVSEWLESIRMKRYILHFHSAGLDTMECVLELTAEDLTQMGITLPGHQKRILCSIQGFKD
Procedure: as §1, §2

[31] = target: T31, MARK1 (Homo sapiens, UniProt Q9P0L2)
T31 construct: purchased DiscoveRx Corporation (KinomeScan)
Procedure: as §1, §2

[32] = target: T32, MAP3K3 (Homo sapiens, UniProt Q99759)
T32 construct: purchased DiscoveRx Corporation (KinomeScan)
Procedure: as §1, §2

[33] = target: T33, RSK4(Kin.Dom.2-C-terminal) (Homo sapiens, UniProt Q9UK32)
T33 construct: Kin.Dom.2; purchased DiscoveRx Corporation (KinomeScan)
Procedure: as §1, §2

[34] = target: T34, QSK (Homo sapiens, UniProt Q9Y2K2)
T34 construct: purchased DiscoveRx Corporation
Procedure: as §1, §2

[35] = target: T35, TYK2(JH1domain-pseudokinase) (Homo sapiens, UniProt P29597)
T35 construct: pseudokinase; purchased DiscoveRx Corporation (KinomeScan service)
Procedure: as §1, §2

T1 sequence (Q15375 28-998): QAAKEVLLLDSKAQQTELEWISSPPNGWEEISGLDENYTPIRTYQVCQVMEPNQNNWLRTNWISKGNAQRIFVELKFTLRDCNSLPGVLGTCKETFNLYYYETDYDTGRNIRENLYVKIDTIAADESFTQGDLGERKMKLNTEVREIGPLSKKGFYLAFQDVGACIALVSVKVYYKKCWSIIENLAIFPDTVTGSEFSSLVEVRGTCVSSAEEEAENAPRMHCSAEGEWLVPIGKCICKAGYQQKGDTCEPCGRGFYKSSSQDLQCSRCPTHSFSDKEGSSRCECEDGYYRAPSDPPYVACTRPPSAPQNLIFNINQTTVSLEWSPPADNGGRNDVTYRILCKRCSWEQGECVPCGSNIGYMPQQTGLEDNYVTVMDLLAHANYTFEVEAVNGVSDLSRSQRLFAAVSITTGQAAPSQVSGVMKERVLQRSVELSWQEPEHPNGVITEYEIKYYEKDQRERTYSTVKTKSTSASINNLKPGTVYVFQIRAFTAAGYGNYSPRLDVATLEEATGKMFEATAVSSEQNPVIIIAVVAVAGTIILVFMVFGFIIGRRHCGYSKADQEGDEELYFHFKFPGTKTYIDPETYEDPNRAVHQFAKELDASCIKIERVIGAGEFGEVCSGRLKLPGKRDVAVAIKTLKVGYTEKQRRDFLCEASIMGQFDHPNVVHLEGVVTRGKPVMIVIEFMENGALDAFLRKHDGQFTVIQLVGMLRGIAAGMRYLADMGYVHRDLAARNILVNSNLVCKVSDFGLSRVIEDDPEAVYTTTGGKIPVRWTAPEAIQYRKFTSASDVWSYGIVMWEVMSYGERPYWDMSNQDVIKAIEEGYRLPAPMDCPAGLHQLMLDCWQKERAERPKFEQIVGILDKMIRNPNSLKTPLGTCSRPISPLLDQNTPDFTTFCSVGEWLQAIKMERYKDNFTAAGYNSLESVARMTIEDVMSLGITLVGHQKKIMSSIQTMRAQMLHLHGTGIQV

CCOP(=O)(CN1CCC(COc2cc3nccc(Oc4ccc(NC(=O)C5(C(=O)Nc6ccc(F)cc6)CC5)cc4F)c3cc2OC)CC1)OCC [Example 10, N1-[4-[[7-[[1-(diethoxyphosphorylmethyl)-4-piperidinyl]methoxyl]-6-methoxyl-4-quinolyl]oxyl]-3-fluorophenyl]-N1′-(4-fluorophenyl)cyclopropane-1,1-dicarboxamide] was tested, and the “% Ctrl@1000 nM” value [1] was 0.8 % Ctrl, the “% Ctrl@1000 nM” value [2] was 2.3 % Ctrl and the “% Ctrl@1000 nM” value [3] was 100 % Ctrl. For the same compound, the “% Ctrl@1000 nM” value [4] was 94 % Ctrl, the “% Ctrl@1000 nM” value [5] was 100 % Ctrl and the “% Ctrl@1000 nM” value [6] was 100 % Ctrl. For the same compound, the “% Ctrl@1000 nM” value [7] was 100 % Ctrl, the “% Ctrl@1000 nM” value [8] was 89 % Ctrl and the “% Ctrl@1000 nM” value [9] was 82 % Ctrl. The “% Ctrl@1000 nM” value [10] was 80 % Ctrl, the “% Ctrl@1000 nM” value [11] was 99 % Ctrl and the “% Ctrl@1000 nM” value [12] was 100 % Ctrl. The “% Ctrl@1000 nM” value [13] was 100 % Ctrl, the “% Ctrl@1000 nM” value [14] was 100 % Ctrl and the “% Ctrl@1000 nM” value [15] was 100 % Ctrl. The “% Ctrl@1000 nM” value [16] was 100 % Ctrl, the “% Ctrl@1000 nM” value [17] was 4.4 % Ctrl and the “% Ctrl@1000 nM” value [18] was 100 % Ctrl. The “% Ctrl@1000 nM” value [19] was 3.5 % Ctrl, the “% Ctrl@1000 nM” value [20] was 100 % Ctrl and the “% Ctrl@1000 nM” value [21] was 100 % Ctrl. The “% Ctrl@1000 nM” value [22] was 79 % Ctrl, the “% Ctrl@1000 nM” value [23] was 92 % Ctrl and the “% Ctrl@1000 nM” value [24] was 100 % Ctrl. For the same compound, the “% Ctrl@1000 nM” value [25] was 100 % Ctrl, the “% Ctrl@1000 nM” value [26] was 100 % Ctrl and the “% Ctrl@1000 nM” value [27] was 39 % Ctrl. For the same compound, the “% Ctrl@1000 nM” value [28] was 100 % Ctrl, the “% Ctrl@1000 nM” value [29] was 91 % Ctrl and the “% Ctrl@1000 nM” value [30] was 4.6 % Ctrl. For the same compound, the “% Ctrl@1000 nM” value [31] was 100 % Ctrl, the “% Ctrl@1000 nM” value [32] was 100 % Ctrl and the “% Ctrl@1000 nM” value [33] was 91 % Ctrl. The “% Ctrl@1000 nM” value [34] was 100 % Ctrl and the “% Ctrl@1000 nM” value [35] was 100 % Ctrl.
